Measurements from patent publication EP2871962B1, “WOOD PROTECTION AGAINST MICROORGANISMS BY LACCASE-CATALYSED IODINATION” (EMPA Eidgenössische Materialprüfungs- und Forschungsanstalt, priority 2012, dated 2013).
Values joined by “and” are separate entries in the source; they are usually repeats but may differ in a detail not shown here. Equal values may be shown once.

Experiments:
S. aureus = experiment: Biotests 1: stamping test of treated, leached wood on agar; assay type: cell-based, Staphylococcus aureus (ATCC 6583); conditions: wood batch 1 exposed to leaching; 18h contact; mean of grades 0-4 ±SE, n = 3; Mediator = ABTS (10 µM)
Description: (§1) Wood specimens (batch 1: 10 x 10 x 5 mm, length x width x height used in the biotests 1 and batch 2: 20 x 15 x 10 mm used in the biotests 2), free of defects, were extracted longitudinally from boards of Norway spruce trees grown in Switzerland, in order to minimize the influence of natural variability. All specimens were conditioned at 23C°(±1°C) and 50% (±5%) relative humidity (RH) until they reached an equilibrium moisture content of approximately 8-10%. Prior to the wood treatment the specimens were sterilized by autoclaving for 20min at 121°C(±1°C). […]
(§2) The evaluation of the antimicrobial activity against the bacteria E. coli and S. aureus and the yeast S. cerevisiae of the iodinated and polymerised wood was performed in biotests 1. […] Growth on agar plates was visually determined after incubation for 20-28h at the optimal temperature, giving the following growth values: 0 = no growth; 1 = weak growth; 2 = intermediate growth; 3 = strong growth and 4 = stamping area completely overgrown.

S. cerevisiae = experiment: as above; assay type: cell-based, Saccharomyces cerevisiae A.C. van Wijk (DSM 70449); conditions: wood batch 1 exposed to leaching; 18h contact; mean of grades 0-4 ±SE, n = 3; Mediator = ABTS (10 µM)
Description: as §1, §2

E. coli = experiment: as above; assay type: cell-based, Escherichia coli (ATCC 11229); conditions: wood batch 1 exposed to leaching; 18h contact; mean of grades 0-4 ±SE, n = 3; Mediator = ABTS (10 µM)
Description: as §1, §2

[1] = tested on: A. pullulans, C. picea, C. herbarum and D. pinicola; experiment: Biotests 2: blue stain test of treated wood (EN 152-2, modified); assay type: cell-based; conditions: 6 weeks of incubation, mean of stain categories 0-5 ±SE, n = 6, Mediator = ACS (50 µM); for Blue stain discoloration, Leached: wood batch 2, leached (EN 84); for Blue stain discoloration, Non-leached: wood batch 2, non-leached
Description: (§3) Wood specimens (batch 1: 10 x 10 x 5 mm, length x width x height used in the biotests 1 and batch 2: 20 x 15 x 10 mm used in the biotests 2), free of defects, were extracted longitudinally from boards of Norway spruce trees grown in Switzerland, in order to minimize the influence of natural variability. All specimens were conditioned at 23C°(±1°C) and 50% (±5%) relative humidity (RH) until they reached an equilibrium moisture content of approximately 8-10%. Prior to the wood treatment the specimens were sterilized by autoclaving for 20min at 121°C(±1°C).
The enzymatic wood iodination and polymerisation were carried out by dipping three wood specimens of batch 1 in 30ml or 12 wood specimens of batch 2 in 200ml reaction solution (pH 4-6) containing one of the phenolic compounds (4mM), or potassium iodide (1 or 50mM) in the presence of laccase ([…]) for 18h at room temperature. Furthermore, to test the suitability of HBA (5mM) as mediator some additional experiments were performed. The chemical preservative VP 7/ 260a containing IPBC and propiconazole as active agents was used as a benchmark with a final concentration of 5% (v/v). The wood specimens were treated and used in the biological tests, with the following modifications: • Control = Wood treated with buffer • L = Wood treated with laccase alone • L-M = Wood treated with laccase and mediator • Iso = Wood treated with isoeugenol • Iso-L = Wood treated with isoeugenol and laccase • Iso-L-M = Wood treated with isoeugenol, laccase and mediator • Thy = Wood treated with thymol • Thy-L = Wood treated with thymol and laccase • Thy-L-M = Wood treated with thymol and laccase and mediator • Ix = Wood treated with 1 or 50mM iodide (x = concentration of iodide) • Ix-L = Wood treated with 1 or 50mM iodide and laccase • Ix-L-M = Wood treated with 1 or 50mM iodide, laccase and mediator • VP7 = Wood treated with VP 7/ 260a (IPBC and propiconazole)
After the reaction all wood specimens of batch 1 had undergone a leaching procedure comprising five cycles of incubation in ddH2O (liquid volume min. 10 times the specimen volume, 100rpm, room temperature, 24h) and water exchange. Half of the wood specimens of batch 2 were exposed to leaching for two weeks including nine steps of water changing according to EN 84 (29), the other half was used without leaching in biotests.
The resistance of the treated wood against blue stain and wood decay fungi was determined in biotests 2 according to the European standards EN 152-2 (30) and EN 113 (31) with slight modifications. The EN 152 is a classical test for blue staining, originally intended to determine the effectiveness of a preservative treatment against blue stain in service. The treated wood samples were dipped into a spore suspension of A. pullulans, C. picea, C. herbarum and D. pinicola (cfu: > 10^5) and placed horizontally in a Kolle flask containing vermiculite (18g) which was inoculated additionally with 40ml of the spore suspension. The incubated specimens were stored in an incubation room at 22°C and 70% RH (6 weeks). After incubation the surface was evaluated by classifying the percentage of blue-stain discolouration from 0 to 5 according to Thwaites et al. (32) (Table 1). Table 1: Determination of the blue stain discoloration

O. placenta [2] = experiment: Biotests 2: mini-wood block decay test (comparable with EN 113), mass loss; assay type: cell-based, Oligoporus placenta; conditions: wood batch 2, non-leached and leached, 12 weeks incubation; numbers only in Figure 2
Description: as §3
(§4) The enzymatic wood iodination and polymerisation were carried out by dipping three wood specimens of batch 1 in 30ml or 12 wood specimens of batch 2 in 200ml reaction solution (pH 4-6) containing one of the phenolic compounds (4mM), or potassium iodide (1 or 50mM) in the presence of laccase (10U ml^-1) and either 10µM ABTS for batch 1 or 100µM ACS for batch 2 under shaking (100rpm) for 18h at room temperature. […]
(§5) The treated wood was aseptically added to fully colonised Petri dishes (135mm diameter, 2% malt extract agar (MEA)) by O. placenta and T. versicolor respectively and incubated at 22C° and 70% RH. The ability of the wood-decay fungi to degrade the wood was determined gravimetrically after incubation periods of 6 and 12 weeks and expressed as mass loss (%) according to EN 113 (31): Mass loss(%) = (m0 −m1)/(m0)⋅100 [formula] […]

O. placenta [3] = experiment: Growth inhibition on supplemented malt extract agar plates (Example 1); assay type: cell-based, Oligoporus placenta; conditions: 2% MEA; phenolic derivatives 4mM, VP 7/ 260a 5% (v/v); without wood; ±SE, n = 3
Description: (§6) In addition to the mentioned biotests 2 the antimicrobial activity of the reaction derivatives without wood was evaluated on agar plates (5), excluding the laccase-catalysed iodine solution. It was assumed that the iodine molecules would react with starch from malt to form polyiodide chains, which would prevent the antimicrobial effect (33). The laccase catalysis of the phenols was performed under shaking for 18h at room temperature as described above and the phenolic derivatives were added to 2% MEA after autoclaving to a final concentration of 4mM. The fungicide VP 7/ 260a were added to a concentration of 5% (v/v). The supplemented Petri dishes were inoculated in the centre with a mycelium agar disc (5mm diameter) taken from the sub-margin of 14 day old cultures of the ascomycetes A. pullulans and D. pinicola and the basidiomycetes O. placenta and T. versicolor. The fungal growth was estimated by measuring the colony diameter and the growth inhibition was expressed as % of reference grown on non-supplemented malt agar.

T. versicolor [4] = experiment: Biotests 2: mini-wood block decay test (comparable with EN 113), mass loss; assay type: cell-based, Trametes versicolor; conditions: wood batch 2, non-leached and leached, 12 weeks incubation; numbers only in Figure 2
Description: as §3, §4, §5

D. pinicola = experiment: Growth inhibition on supplemented malt extract agar plates (Example 1); assay type: cell-based, Discula pinicola; conditions: 2% MEA; phenolic derivatives 4mM, VP 7/ 260a 5% (v/v); without wood; ±SE, n = 3
Description: as §6

A. alternata = experiment: as above; assay type: cell-based; conditions: 2% MEA; phenolic derivatives 4mM, VP 7/ 260a 5% (v/v); without wood; ±SE, n = 3
T. versicolor [5] = experiment: as above; assay type: cell-based, Trametes versicolor; conditions: 2% MEA; phenolic derivatives 4mM, VP 7/ 260a 5% (v/v); without wood; ±SE, n = 3
Description: as §6

SMILES: [I-].[K+] [I50, potassium iodide]
- Growth values after stamping, S. aureus (S. aureus): 3.0 ±0.6
- Growth values after stamping, S. cerevisiae (S. cerevisiae): 2.7 ±0.3
- Growth values after stamping, E. coli (E. coli): 4.0 ±0.0
- Blue stain discoloration, Leached [1]: 3.3 ±0.3
- Blue stain discoloration, Non-leached [1]: 0.8 ±0.4

SMILES: CC=Cc1ccc(O)c(OC)c1 [Iso, isoeugenol]
- mass loss of wood caused by O. placenta (result in words) (O. placenta [2]): minor effect
- Growth inhibition [%] on agar plate compared to control, O. placenta (O. placenta [3]): 100 ±0.0%
- mass loss of wood caused by T. versicolor (result in words) (T. versicolor [4]): minor effect
- Growth values after stamping, E. coli (E. coli): 4.0 and 4.0 ±0.0
- Growth inhibition [%] on agar plate compared to control, D. pinicola (D. pinicola): 100 ±0.0%
- Growth inhibition [%] on agar plate compared to control, A. alternata (A. alternata): 100 ±0.0%
- Growth inhibition [%] on agar plate compared to control, T. versicolor (T. versicolor [5]): 100 ±0.0%
- Blue stain discoloration, Leached [1]: 3.4 and 3.4 ±0.5

SMILES: Cc1ccc(C(C)C)c(O)c1 [Thy, thymol]
- mass loss of wood caused by O. placenta (result in words) (O. placenta [2]): minor effect
- Growth inhibition [%] on agar plate compared to control, O. placenta (O. placenta [3]): 100 ±0.0%
- mass loss of wood caused by T. versicolor (result in words) (T. versicolor [4]): minor effect
- Growth inhibition [%] on agar plate compared to control, D. pinicola (D. pinicola): 100 ±0.0%
- Growth inhibition [%] on agar plate compared to control, A. alternata (A. alternata): 100 ±0.0%
- Growth inhibition [%] on agar plate compared to control, T. versicolor (T. versicolor [5]): 100 ±0.0%
- Blue stain discoloration, Leached [1]: 3.5 and 3.5 ±0.3
- Blue stain discoloration, Non-leached [1]: 2.5 and 2.5 ±0.6
